Columns and labels:
[1] = tested on: ENR+CD organoids (ISC to Paneth cell differentiation); assay: Primary screen: CCh-stimulated lysozyme secretion LYZ.S, 2.5-D 384-well ENR+CD organoid differentiation; type: cell-based, mouse; conditions: primary screen
Text: (§1) High-throughput screening.

[2] = tested on: ENR+CD organoids (ISC to Paneth cell differentiation); assay: Primary screen: basal (non-stimulated) lysozyme secretion LYZ.NS, 2.5-D 384-well ENR+CD organoid differentiation; type: cell-based, mouse
Text: as §1

ENR+CD organoids = assay: Primary screen: ATP (CellTiter-Glo 3D, CTG) cell number/viability, 2.5-D 384-well ENR+CD organoids;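 further: compounds given at plating and again on day 3 over a 6-day differentiation from ENR+CV stem-cell-enriched precursors, ATP measured on day 6, plate median as control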
[3] = primary screen, standard z score, dose 0.08 uM
[4] = primary screen, standard z score, dose 0.40 uM
[5] = primary screen, standard z score, dose 2.00 uM
[6] = primary screen, standard z score, dose 10.00 uM
[7] = dose 0.08 uM, FC relative to plate median
[8] = dose 0.40 uM, FC relative to plate median
[9] = dose 2.00 uM, FC relative to plate median
[10] = dose 10.00 uM, FC relative to plate median
[11] = primary screen, dose 0.08 uM, FC relative to plate median
[12] = primary screen, dose 0.08 uM, standard z score
[13] = primary screen, dose 0.40 uM, FC relative to plate median
[14] = primary screen, dose 0.40 uM, standard z score
[15] = primary screen, dose 2.00 uM, FC relative to plate median
[16] = primary screen, dose 2.00 uM, standard z score
[17] = primary screen, dose 10.00 uM, FC relative to plate median
[18] = primary screen, dose 10.00 uM, standard z score

SMILES	Dose.FC.LYZ.S ([1]; dose 0.08 uM)	Dose.FC.LYZ.S ([1]; dose 0.40 uM)	Dose.FC.LYZ.S ([1]; dose 2.00 uM)	Dose.FC.LYZ.S ([1]; dose 10.00 uM)	Dose.FC.LYZ.NS ([2]; primary screen, dose 0.08 uM)	Dose.FC.LYZ.NS ([2]; primary screen, dose 0.40 uM)	Dose.FC.LYZ.NS ([2]; primary screen, dose 2.00 uM)	Dose.FC.LYZ.NS ([2]; primary screen, dose 10.00 uM)	Z.LYZ.NS [2, 3]	Z.LYZ.NS [2, 4]	Z.LYZ.NS [2, 5]	Z.LYZ.NS [2, 6]	Dose.FC.CTG (ENR+CD organoids; primary screen, dose 0.08 uM)	Dose.FC.CTG (ENR+CD organoids; primary screen, dose 0.40 uM)	Dose.FC.CTG (ENR+CD organoids; primary screen, dose 2.00 uM)	Dose.FC.CTG (ENR+CD organoids; primary screen, dose 10.00 uM)	also measured
CCN(CC)C(=O)/C(C#N)=C/c1cc(O)c(O)c([N+](=O)[O-])c1 [Entacapone]	0.020 log2 fold change	0.024 log2 fold change	0.072 log2 fold change	0.027 log2 fold change	0.136 log2 fold change	0.012 log2 fold change	0.085 log2 fold change	0.100 log2 fold change	1.183	0.102	0.744	0.870	−0.115 log2 fold change	−0.065 log2 fold change	0.206 log2 fold change	−0.391 log2 fold change	–
CC1(COc2ccc3c(c2)ncn3-c2ccc3cccc(N4CCC(N)CC4)c3n2)COC1 [Crenolanib (CP-868596)]	0.094 log2 fold change	0.043 log2 fold change	0.149 log2 fold change	−0.292 log2 fold change	0.121 log2 fold change	0.051 log2 fold change	0.122 log2 fold change	−0.224 log2 fold change	1.051	0.441	1.065	−1.951	−0.069 log2 fold change	−0.025 log2 fold change	0.053 log2 fold change	−0.338 log2 fold change	Z.CTG (ENR+CD organoids; [3]): −0.165; Z.CTG (ENR+CD organoids; [4]): −0.059; Z.CTG (ENR+CD organoids; [5]): 0.127; Z.CTG (ENR+CD organoids; [6]): −0.808
CC(C)CCNC(=O)[C@H](CC(C)C)NC(=O)[C@H]1O[C@@H]1C(=O)O [Loxistatin Acid (E-64C)]	–	–	–	–	–	–	–	–	–	–	–	–	–	–	–	–	Dose.FC.LYZ.S (log2 fold change) ([1]; dose 0.08 uM): 0.125; Dose.FC.LYZ.S (log2 fold change) ([1]; dose 0.40 uM): 0.105; Dose.FC.LYZ.S (log2 fold change) ([1]; dose 2.00 uM): 0.037; Dose.FC.LYZ.S (log2 fold change) ([1]; dose 10.00 uM): 0.021; Dose.FC.LYZ.NS (log2 fold change) ([2]; primary screen, dose 0.08 uM): 0.147; Z.LYZ.NS (standard z score) ([2]; primary screen, dose 0.08 uM): 1.283; Dose.FC.LYZ.NS (log2 fold change) ([2]; primary screen, dose 0.40 uM): 0.061; Z.LYZ.NS (standard z score) ([2]; primary screen, dose 0.40 uM): 0.534; Dose.FC.LYZ.NS (log2 fold change) ([2]; primary screen, dose 2.00 uM): 0.055; Z.LYZ.NS (standard z score) ([2]; primary screen, dose 2.00 uM): 0.482; Dose.FC.LYZ.NS (log2 fold change) ([2]; primary screen, dose 10.00 uM): 0.004; Z.LYZ.NS (standard z score) ([2]; primary screen, dose 10.00 uM): 0.031; Dose.FC.CTG (log2 fold change) (ENR+CD organoids; primary screen, dose 0.08 uM): 0.086; Z.CTG (standard z score) (ENR+CD organoids; primary screen, dose 0.08 uM): 0.206; Dose.FC.CTG (log2 fold change) (ENR+CD organoids; primary screen, dose 0.40 uM): 0.156; Z.CTG (standard z score) (ENR+CD organoids; primary screen, dose 0.40 uM): 0.373; Dose.FC.CTG (log2 fold change) (ENR+CD organoids; primary screen, dose 2.00 uM): 0.080; Z.CTG (standard z score) (ENR+CD organoids; primary screen, dose 2.00 uM): 0.191; Dose.FC.CTG (log2 fold change) (ENR+CD organoids; primary screen, dose 10.00 uM): 0.094; Z.CTG (standard z score) (ENR+CD organoids; primary screen, dose 10.00 uM): 0.224
CC(C)(C)c1nc(-c2cccc(NS(=O)(=O)c3c(F)cccc3F)c2F)c(-c2ccnc(N)n2)s1 [Dabrafenib (GSK2118436)]	0.236 log2 fold change	0.103 log2 fold change	0.019 log2 fold change	−0.384 log2 fold change	0.095 log2 fold change	0.049 log2 fold change	−0.001 log2 fold change	−0.250 log2 fold change	0.830	0.427	−0.006	−2.178	−0.134 log2 fold change	0.011 log2 fold change	−0.279 log2 fold change	−0.800 log2 fold change	Z.CTG (ENR+CD organoids; [3]): −0.320; Z.CTG (ENR+CD organoids; [4]): 0.026; Z.CTG (ENR+CD organoids; [5]): −0.667; Z.CTG (ENR+CD organoids; [6]): −1.911
CCN(c1cc(-c2ccc(CN3CCOCC3)cc2)cc(C(=O)NCc2c(C)cc(C)[nH]c2=O)c1C)C1CCOCC1 [EPZ-6438]	0.003 log2 fold change	−0.023 log2 fold change	−0.011 log2 fold change	0.046 log2 fold change	0.012 log2 fold change	−0.023 log2 fold change	0.015 log2 fold change	0.062 log2 fold change	0.108	−0.203	0.130	0.538	0.045 log2 fold change	0.075 log2 fold change	−0.068 log2 fold change	0.336 log2 fold change	–
CCN[C@H]1CN(CCCOC)S(=O)(=O)c2sc(S(N)(=O)=O)cc21 [Brinzolamide]	0.030 log2 fold change	0.052 log2 fold change	0.064 log2 fold change	0.083 log2 fold change	0.133 log2 fold change	0.084 log2 fold change	0.059 log2 fold change	0.060 log2 fold change	–	–	–	–	−0.007 log2 fold change	−0.068 log2 fold change	0.118 log2 fold change	0.078 log2 fold change	Z.LYZ.NS (standard z score) ([2]; primary screen, dose 0.08 uM): 1.159; Z.LYZ.NS (standard z score) ([2]; primary screen, dose 0.40 uM): 0.733; Z.LYZ.NS (standard z score) ([2]; primary screen, dose 2.00 uM): 0.511; Z.LYZ.NS (standard z score) ([2]; primary screen, dose 10.00 uM): 0.521; Z.CTG (standard z score) (ENR+CD organoids; primary screen, dose 0.40 uM): −0.163; Z.CTG (standard z score) (ENR+CD organoids; primary screen, dose 2.00 uM): 0.282; Z.CTG (standard z score) (ENR+CD organoids; primary screen, dose 10.00 uM): 0.186
O=C(Nc1ccccc1-c1cn2c(CN3CCNCC3)csc2n1)c1cnc2ccccc2n1 [SRT1720]	–	–	–	–	–	–	–	–	–	–	–	–	–	–	–	–	Dose.FC.LYZ.S [1, 7]: 0.190 log2 fold change; Dose.FC.LYZ.S [1, 8]: 0.099 log2 fold change; Dose.FC.LYZ.S [1, 9]: 0.051 log2 fold change; Dose.FC.LYZ.S [1, 10]: −0.193 log2 fold change; Dose.FC.LYZ.NS [2, 11]: 0.172 log2 fold change; Z.LYZ.NS [2, 12]: 1.495; Dose.FC.LYZ.NS [2, 13]: 0.112 log2 fold change; Z.LYZ.NS [2, 14]: 0.972; Dose.FC.LYZ.NS [2, 15]: 0.070 log2 fold change; Z.LYZ.NS [2, 16]: 0.613; Dose.FC.LYZ.NS [2, 17]: −0.104 log2 fold change; Z.LYZ.NS [2, 18]: −0.906; Dose.FC.CTG (ENR+CD organoids; [11]): 0.529 log2 fold change; Z.CTG (ENR+CD organoids; [12]): 1.264; Dose.FC.CTG (ENR+CD organoids; [13]): 0.394 log2 fold change; Z.CTG (ENR+CD organoids; [14]): 0.940; Dose.FC.CTG (ENR+CD organoids; [15]): 0.339 log2 fold change; Z.CTG (ENR+CD organoids; [16]): 0.810; Dose.FC.CTG (ENR+CD organoids; [17]): −1.016 log2 fold change; Z.CTG (ENR+CD organoids; [18]): −2.427
CC(C)N(CCCNC(=O)Nc1ccc(C(C)(C)C)cc1)C[C@H]1O[C@@H](n2cc(Br)c3c(N)ncnc32)[C@H](O)[C@@H]1O [SGC0946]	–	–	–	–	–	–	–	–	–	–	–	–	–	–	–	–	Dose.FC.LYZ.S [1, 7]: 0.145 log2 fold change; Dose.FC.LYZ.S [1, 8]: −0.098 log2 fold change; Dose.FC.LYZ.S [1, 9]: 0.220 log2 fold change; Dose.FC.LYZ.S [1, 10]: 0.065 log2 fold change; Dose.FC.LYZ.NS [2, 11]: 0.090 log2 fold change; Z.LYZ.NS [2, 12]: 0.787; Dose.FC.LYZ.NS [2, 13]: −0.027 log2 fold change; Z.LYZ.NS [2, 14]: −0.236; Dose.FC.LYZ.NS [2, 15]: 0.200 log2 fold change; Z.LYZ.NS [2, 16]: 1.738; Dose.FC.LYZ.NS [2, 17]: 0.059 log2 fold change; Z.LYZ.NS [2, 18]: 0.516; Dose.FC.CTG (ENR+CD organoids; [11]): 0.052 log2 fold change; Dose.FC.CTG (ENR+CD organoids; [13]): −0.122 log2 fold change; Dose.FC.CTG (ENR+CD organoids; [15]): −0.082 log2 fold change; Dose.FC.CTG (ENR+CD organoids; [17]): −0.142 log2 fold change
